Assay results reported in US20210052532A1, “COMPOSITIONS AND METHODS FOR TREATMENT OF INSULIN RESISTANCE” (TEMPLE UNIVERSITY - OF THE COMMONWEALTH SYSTEM OF HIGHER …, priority 2018, published 2021).

What was measured:
3T3-L1 adipocytes [1] = test: Insulin-stimulated glucose uptake in 3T3-L1 adipocytes, measured by MRM; format: cell-based; details: 3T3-L1 adipocytes treated 4 hr with 20 M (so in the source) of 4-HNE or H2O2 or both, then 100 nM insulin 60 min; FIG. 4 legend: 4-HNE 20 μM, H2O2 100 μM
Protocol: FIG. 4 graphically depicts glucose transport impairment in 3T3-L1 cells when exposed to 4-HNE (20 μM) and/or H2O2 (100 μM) for 4 hr.
(§1) GLUT4 carbonylations impair its function. To directly link the function impairment due to GLUT4 carbonylations to insulin resistance in vitro, GLUT4-SNAP fusion construct were generated and retroviral transduction in 3T3-L1 adipocytes were performed to overexpress the GLUT4-SNAP protein. Twenty-four hours after the transduction, the cells were treated with and without 20 μM of 4-HNE for an additional 4h. This 4-HNE dose was chosen because it was similar to the physiological levels and was non-toxic. […] 3T3-L1 adipocytes were treated with either 20 M of 4-HNE or H2O2 or the combination of both for 4 hr and were then stimulated with 100 nM insulin for 60 min. The glucose uptake was measured by an MRM method.

adipocyte glucose uptake = test: Overnutrition-induced adipocyte glucose uptake impairment; format: cell-based; details: adipocytes
Text: (§2) Without wishing to be bound by any theory, compounds of Formula I-III form adducts with reactive aldehydes such as 4-HNE, thereby diverting 4-HNE from damaging proteins such as GLUT-4, by carbonylation. […] Restoration of GLUT-4 function results in enhancement or restoration of adipocyte insulin sensitivity and the resumption or enhancement of glucose uptake.

[2] = Adduct formation with the reactive aldehyde 4-HNE; details: diverts 4-HNE from damaging GLUT-4 by carbonylation
Text: as §2

GLUT4-SNAP protein = test: Formation of K264-HNE GLUT4 adduct in 3T3-L1 cells overexpressing GLUT4-SNAP (MRM); format: cell-based; details: 4-HNE 20 μM for 4 hr, FIG. 3
Text: FIG. 3 provides typical MRM data showing an increase in the transitions of HNE-induced K264-HNE adduct (left panel) which were used to calculate the amounts of carbonylated GLUT4 (right panel). Four transitions of the GLUT4 peptide found in humans are shown. The sequence of the carbonylated GLUT4 peptide LTGWADVSGVLAELKDEK-4HNE (SEQ ID NO:1) is depicted.
Certain conditions such as overnutrition can lead to oxidative stress, and the generation of reactive aldehydes such as 4-HNE, which react with cysteine, lysine and histidine residues of proteins via Michael addition and Schiff base formation. 4-HNE can form HNE-Michaels adducts on GLUT4, the major insulin-facilitated glucose transporter in adipose tissue. 3T3-L1 adipocytes retrovirally transduced to overexpress the GLUT4-SNAP protein formed a K264-HNE GLUT4 adduct upon treatment with 4-HNE. The same K264-HNE GLUT4 adduct is elevated in the fat tissue of human pre-diabetic and diabetic individuals.
GLUT4 carbonylations impair its function. To directly link the function impairment due to GLUT4 carbonylations to insulin resistance in vitro, GLUT4-SNAP fusion construct were generated and retroviral transduction in 3T3-L1 adipocytes were performed to overexpress the GLUT4-SNAP protein. […] The glucose uptake was measured by an MRM method.

3T3-L1 adipocytes [3] = test: Toxicity of the 4-HNE dose to the treated cells; format: cell-based; details: 20 μM of 4-HNE, 4h, transduced 3T3-L1 adipocytes
Protocol: as §1

SMILES	glucose uptake reduced / decrease in the glucose uptake (3T3-L1 adipocytes [1]) [%]	effect on glucose uptake impairment (adipocyte glucose uptake)	adduct formation with 4-HNE [2]	formation of the K264-HNE adduct (GLUT4-SNAP protein)	toxicity of dose (3T3-L1 adipocytes [3])
OO [Example H2O2]	66				
Cl.Cl.NCCCNCCCC[C@H](N)C(=O)O [Example 4, (S)-2-amino-6-((3-aminopropyl)amino)hexanoic acid dihydrochloride]		reversing overnutrition-induced glucose uptake impairment	forms an adduct with 4-HNE		
CCCCCC(O)/C=C/C=O (stereo not drawn) [Example 4-HNE, 4-hydroxynonenal]	32			induced the formation of the K264-HNE adduct	non-toxic
